Values quoted from earlier work, collected in patent US5122371A (priority 1991, dated 1992).

Tests used:
Na+ K+-ATPase enzyme = settings: known property of cardiac glycosides
[1] = in vivo

Compound	Effect on Na+ K+-ATPase enzyme activity (Na+ K+-ATPase enzyme)	half-life [1] [h]
C[C@H]1O[C@@H](O[C@H]2[C@@H](O)C[C@H](O[C@H]3[C@@H](O)C[C@H](O[C@H]4CC[C@@]5(C)[C@H](CC[C@@H]6[C@@H]5C[C@@H](O)[C@]5(C)[C@@H](C7=CC(=O)OC7)CC[C@]65O)C4)O[C@@H]3C)O[C@@H]2C)C[C@H](O)[C@@H]1O [digoxin]	inhibit	–
C[C@@H]1O[C@@H](O[C@H]2C[C@@H](O)[C@]3(CO)[C@H]4[C@H](O)C[C@]5(C)[C@@H](C6=CC(=O)OC6)CC[C@]5(O)[C@@H]4CC[C@]3(O)C2)[C@H](O)[C@H](O)[C@H]1O [ouabain]	inhibit	21
digitalis	inhibit	–
